Here are results for four molecules from ChEMBL document CHEMBL3817840, “Discovery of CNS Penetrant CXCR2 Antagonists for the Potential Treatment of CNS Demyelinating Disorders” (ACS Med Chem Lett, 2016).

As a reminder, the AUC(0-t) is exposure summed from dosing to a finite time, without extrapolation to infinity. Read a high AUC(0-t) as high exposure. What is called IC50 is the concentration that inhibits the measured activity by half. As a reminder, the Kp is tissue or fluid exposure divided by exposure in the circulation. What is called bioavailability is the share of a dose that reaches the circulation, judged against a reference dose that is usually intravenous. A high value points to good availability. As usually defined, the half-life is the time in which the quantity being followed falls by half. In general, Cmax refers to the maximum level reached in the sampled fluid or tissue. As usually defined, the clearance is the rate of elimination divided by the concentration.

Data set [1] can be described thus: AUC (0 to 4 hrs) in C57BL/6 mouse blood at 1.9 mg/kg, po by UPLC/MS/MS analysis. More on the design: dose 1.9 mg/kg, time < 4 hr, route oral. The data set is classed as ADME, organism-based.
The target of data set [2] is T1, C-X-C chemokine receptor type 2 (Homo sapiens, UniProt P25025).
T1 sequence (P25025 whole entry): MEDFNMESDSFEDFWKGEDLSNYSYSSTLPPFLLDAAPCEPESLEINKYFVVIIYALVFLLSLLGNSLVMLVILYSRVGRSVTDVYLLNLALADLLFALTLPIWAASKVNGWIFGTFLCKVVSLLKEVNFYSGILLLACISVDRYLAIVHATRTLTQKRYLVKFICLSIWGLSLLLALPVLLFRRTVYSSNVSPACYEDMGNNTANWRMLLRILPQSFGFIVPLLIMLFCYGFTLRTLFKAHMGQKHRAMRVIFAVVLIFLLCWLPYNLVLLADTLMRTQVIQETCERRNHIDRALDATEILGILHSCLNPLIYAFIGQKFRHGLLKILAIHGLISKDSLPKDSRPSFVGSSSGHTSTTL
Put plainly: Antagonist activity at human recombinant Gal4-VP16 fused-CXCR2 assessed as inhibition of CXCL1-mediated lactamase reporter gene expression after overnight incubation. In general terms: A reporter such as luciferase makes a cellular process visible.

Data set [3] relates to Brain. Briefly: AUC (0 to 4 hrs) in C57BL/6 mouse brain at 1.9 mg/kg, po by UPLC/MS/MS analysis. The data set is classed as ADME, organism-based. Further details: dose 1.9 mg/kg, time < 4 hr, route oral. The following applies: in vivo.
A short description of data set [4]: Ratio of drug level in C57BL/6 mouse brain to blood at 1.9 mg/kg, po. The data set is classed as ADME, organism-based.
A short description of data set [5]: Stability of the compound assessed as GSH conjugate formation. The data set is classed as physicochemical.
Another data set deals with T2, Cytochrome P450 1A2 (Homo sapiens, UniProt P05177).
T2 sequence (P05177 whole entry): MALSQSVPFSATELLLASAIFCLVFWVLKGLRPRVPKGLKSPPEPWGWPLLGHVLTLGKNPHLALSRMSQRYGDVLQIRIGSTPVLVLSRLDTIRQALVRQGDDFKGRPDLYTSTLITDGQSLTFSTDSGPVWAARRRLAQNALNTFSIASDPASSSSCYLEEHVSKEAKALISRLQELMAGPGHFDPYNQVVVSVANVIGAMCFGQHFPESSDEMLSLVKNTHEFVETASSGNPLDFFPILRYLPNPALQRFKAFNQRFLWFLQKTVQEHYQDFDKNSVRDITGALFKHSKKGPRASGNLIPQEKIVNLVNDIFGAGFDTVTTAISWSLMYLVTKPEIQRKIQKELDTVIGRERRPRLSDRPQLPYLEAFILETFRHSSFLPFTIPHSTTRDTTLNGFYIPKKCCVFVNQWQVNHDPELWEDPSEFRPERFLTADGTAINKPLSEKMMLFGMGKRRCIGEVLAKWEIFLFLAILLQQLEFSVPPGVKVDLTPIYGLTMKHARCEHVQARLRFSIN
Put plainly: Inhibition of CYP1A2 (unknown origin). The data set is classed as ADME.

A short description of data set [6]: Volume of distribution at steady state in C57BL/6 mouse at 1 mg/kg, iv. The data set is classed as ADME, organism-based. The following applies: in vivo, read-out: Vdss.
Data set [7] concerns Brain. Briefly: AUC (0 to 4 hrs) in C57BL/6 mouse brain at 2 mg/kg, ip by UPLC/MS/MS analysis. The following applies: in vivo. The data set is classed as ADME, organism-based. Further details: dose 2 mg/kg, time < 4 hr, route intraperitoneal.
A short description of data set [8]: Fraction unbound in human plasma. The data set is classed as ADME, cell-free.
Data set [9] in a line: AUC (0 to 4 hrs) in C57BL/6 mouse blood at 2 mg/kg, ip by UPLC/MS/MS analysis. The following applies: C57BL/6, mouse, blood. The data set is classed as ADME, organism-based. More on the design: dose 2 mg/kg, time < 4 hr, route intraperitoneal.
In data set [10] the target is Voltage-gated inwardly rectifying potassium channel KCNH2 (Homo sapiens, UniProt Q12809). Briefly: Binding affinity to human ERG.
Voltage-gated inwardly rectifying potassium channel KCNH2, sequence (Q12809 whole entry): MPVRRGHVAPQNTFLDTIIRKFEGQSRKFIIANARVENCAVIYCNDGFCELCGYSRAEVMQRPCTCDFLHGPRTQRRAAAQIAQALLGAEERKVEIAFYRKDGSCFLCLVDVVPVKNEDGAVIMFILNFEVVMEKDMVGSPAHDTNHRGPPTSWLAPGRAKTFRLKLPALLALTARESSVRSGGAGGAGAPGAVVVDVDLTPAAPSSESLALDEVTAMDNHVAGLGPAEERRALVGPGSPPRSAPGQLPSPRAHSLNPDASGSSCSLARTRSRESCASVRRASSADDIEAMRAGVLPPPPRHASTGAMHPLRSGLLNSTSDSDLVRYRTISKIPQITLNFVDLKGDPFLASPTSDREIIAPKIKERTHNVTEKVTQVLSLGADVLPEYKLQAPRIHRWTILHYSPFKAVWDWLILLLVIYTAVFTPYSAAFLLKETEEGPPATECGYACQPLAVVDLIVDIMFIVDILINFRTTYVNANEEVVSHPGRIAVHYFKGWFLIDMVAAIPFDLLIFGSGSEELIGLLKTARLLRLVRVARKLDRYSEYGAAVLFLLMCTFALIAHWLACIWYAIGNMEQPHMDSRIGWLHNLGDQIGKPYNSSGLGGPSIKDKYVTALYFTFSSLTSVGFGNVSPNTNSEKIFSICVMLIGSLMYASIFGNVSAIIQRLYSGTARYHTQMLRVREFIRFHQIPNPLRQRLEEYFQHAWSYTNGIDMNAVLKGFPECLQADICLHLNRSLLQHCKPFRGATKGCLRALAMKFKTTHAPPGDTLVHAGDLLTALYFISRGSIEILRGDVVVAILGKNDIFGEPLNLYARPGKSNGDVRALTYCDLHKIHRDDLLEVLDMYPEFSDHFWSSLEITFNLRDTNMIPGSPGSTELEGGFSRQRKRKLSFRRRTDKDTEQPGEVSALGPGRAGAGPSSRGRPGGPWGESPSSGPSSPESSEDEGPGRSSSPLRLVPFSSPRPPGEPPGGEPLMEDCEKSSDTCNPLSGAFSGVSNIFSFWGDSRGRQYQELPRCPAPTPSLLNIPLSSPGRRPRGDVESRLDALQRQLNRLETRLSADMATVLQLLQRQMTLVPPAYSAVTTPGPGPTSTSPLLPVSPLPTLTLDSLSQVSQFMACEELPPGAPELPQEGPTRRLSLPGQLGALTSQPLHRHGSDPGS
The next data set addresses Cytochrome P450 2C19 (Homo sapiens, UniProt P33261). Briefly: Inhibition of CYP2C19 (unknown origin). The data set is classed as ADME.
The next data set concerns the target Cytochrome P450 3A4 (Homo sapiens, UniProt P08684). Put plainly: Inhibition of CYP3A4 (unknown origin). The data set is classed as ADME.
In data set [11] the test system is Mus musculus. Briefly: Dose normalized AUC (0 to infinity) in C57BL/6 mouse at 2 mg/kg, po. The data set is classed as ADME, organism-based. The following applies: in vivo.
A short description of data set [12]: Oral bioavailability in C57BL/6 mouse at 2 mg/kg. The data set is classed as ADME, organism-based. The following applies: in vivo.
A short description of data set [13]: Half life in C57BL/6 mouse at 1 mg/kg, iv. The data set is classed as ADME, organism-based. The following applies: in vivo.
The nature of data set [14]: Cmax in C57BL/6 mouse at 2 mg/kg, po. The data set is classed as ADME, organism-based. Further details: dose 2 mg/kg, route oral. The following applies: in vivo.
Data set [15] is described as follows: Clearance in C57BL/6 mouse blood at 1 mg/kg, iv. The data set is classed as ADME, organism-based.
The nature of data set [16]: Ratio of drug level in C57BL/6 mouse brain to blood at 3.4 mg/kg, po. The data set is classed as ADME, organism-based.
Data set [17] has as its system Brain. Briefly: AUC (0 to 4 hrs) in C57BL/6 mouse brain at 3.4 mg/kg, po by UPLC/MS/MS analysis. The data set is classed as ADME, organism-based. More on the design: dose 3.4 mg/kg, time < 4 hr, route oral. The following applies: in vivo.
Data set [18] in a line: AUC (0 to 4 hrs) in C57BL/6 mouse blood at 3.4 mg/kg, po by UPLC/MS/MS analysis. The data set is classed as ADME, organism-based. More on the design: time < 4 hr, dose 3.4 mg/kg, route oral.
The test system of data set [19] is Mus musculus. Briefly: Induction of remyelination in corpus callosum in cuprizone-induced C57BL/6 mouse demyelination model at 100 mg/kg, po bid for 9 consecutive days by black-gold myelin staining based microscopy. The data set is classed as functional, organism-based.

Calls of active or inactive are those of the source. The rule behind the calls is not given here.

Cytochrome P450 3A4, sequence (P08684 whole entry): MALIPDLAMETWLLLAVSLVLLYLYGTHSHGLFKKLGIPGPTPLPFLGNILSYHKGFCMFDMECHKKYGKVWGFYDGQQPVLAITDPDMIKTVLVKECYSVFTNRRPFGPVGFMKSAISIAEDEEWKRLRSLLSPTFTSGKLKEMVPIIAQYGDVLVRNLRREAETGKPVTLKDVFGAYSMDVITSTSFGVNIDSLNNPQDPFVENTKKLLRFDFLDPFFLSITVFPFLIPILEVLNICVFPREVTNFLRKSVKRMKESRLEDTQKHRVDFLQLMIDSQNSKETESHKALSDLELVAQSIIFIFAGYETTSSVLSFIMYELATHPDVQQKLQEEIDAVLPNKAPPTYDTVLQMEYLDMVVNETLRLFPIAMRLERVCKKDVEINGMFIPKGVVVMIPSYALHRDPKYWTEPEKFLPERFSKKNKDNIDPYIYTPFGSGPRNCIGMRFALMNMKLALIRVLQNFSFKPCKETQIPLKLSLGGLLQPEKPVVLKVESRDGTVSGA
Cytochrome P450 2C19, sequence (P33261 whole entry): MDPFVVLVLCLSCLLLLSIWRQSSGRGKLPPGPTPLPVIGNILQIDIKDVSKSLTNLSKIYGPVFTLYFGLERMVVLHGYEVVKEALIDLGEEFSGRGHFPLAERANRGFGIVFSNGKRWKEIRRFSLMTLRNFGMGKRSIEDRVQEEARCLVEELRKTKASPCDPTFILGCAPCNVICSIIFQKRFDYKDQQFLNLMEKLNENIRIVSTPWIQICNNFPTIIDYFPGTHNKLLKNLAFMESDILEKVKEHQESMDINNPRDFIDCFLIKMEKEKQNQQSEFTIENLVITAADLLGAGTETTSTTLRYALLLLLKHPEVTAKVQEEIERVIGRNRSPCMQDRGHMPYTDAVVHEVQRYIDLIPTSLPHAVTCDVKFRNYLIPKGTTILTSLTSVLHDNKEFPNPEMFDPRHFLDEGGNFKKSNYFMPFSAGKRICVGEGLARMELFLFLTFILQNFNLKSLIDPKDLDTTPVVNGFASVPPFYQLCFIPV

`NS(=O)(=O)c1c(Cl)ccc(NC(=O)Nc2cccc(Cl)c2Cl)c1O` showed an AUC(0-t) at 4 h in data set [1] of 352 ng·h/mL. The IC50 in data set [2] was 2 nM. Besides, in the data set with Brain [3], the AUC is 49 ng·h/g. In addition, in data set [4], the Kp is 0.14.

With `CN1CCC(S(=O)(=O)c2c(Cl)ccc(NC(=O)Nc3cccc(Cl)c3Cl)c2O)CC1`, the Stability entry in [5] is listed as “Stable”. Besides, the IC50 against Cytochrome P450 1A2 is more than 10000 nM; in data set [2], 1.58 nM; in data set [10], more than 79400 nM; against Cytochrome P450 2C19 it was more than 10000 nM; on Cytochrome P450 3A4 it was more than 10000 nM. Further, the Vd in [6] worked out at 2.12 L/kg. Also, the AUC in the data set with Brain [7] was 358 ng·h/g. In addition, the Fu in [8] came to 0.1%. The same molecule showed an AUC(0-t) at 4 h in data set [9] of 600 ng·h/mL. This molecule yielded an AUC/dose in the data set with Mus musculus [11] of 299 ng·h/mL/mg/kg. In addition, the bioavailability in data set [12] is 30%. For the same molecule, in [13], the half-life is 2 h. Further, the peak level in [14] (Cmax) was 132 ng/mL. The same molecule returned a clearance in data set [15] of 15.6 mL/min/kg.

Take `O=C(Nc1ccc(Cl)c(S(=O)(=O)N2CCNCC2)c1O)Nc1cccc(Cl)c1Cl`: in data set [16], the Kp is 0.17. Further, the IC50 in [2] was 0.631 nM. For the same molecule, in the data set with Brain [17], the AUC was 143 ng·h/g. In [18], this molecule showed an AUC(0-t) at 4 h of 855 ng·h/mL.

For the molecule `CN1CCC(S(=O)(=O)c2c(Cl)ccc(NC(=O)Nc3cccc(F)c3Cl)c2O)CC1`, in [5], the Stability result is given as “Stable”. Besides, the outcome in the data set with Mus musculus [19] was Active. Further, the Vd in [6] was 3.17 L/kg. Also, the AUC with Brain [7] was 335 ng·h/g. In addition, in data set [2], the IC50 is 0.501 nM. Moreover, the Fu in [8] is 0.13%. In [9], this molecule came in with an AUC(0-t) at 4 h of 735 ng·h/mL. For the same molecule, the AUC/dose in the data set with Mus musculus [11] came out at 354 ng·h/mL/mg/kg. Besides, the bioavailability in data set [12] was 41%. Besides, in data set [13], the half-life was 2.8 h. The molecule also gave a Cmax in data set [14] of 157 ng/mL. In addition, in data set [15], the clearance came to 16.9 mL/min/kg.
